Experimental data: US11413302B2, “Use of carrimycin or active ingredients thereof and use thereof” (SHENYANG FUYANG PHARMACEUTICAL TECHNOLOGY CO., LTD., priority 2018, dated 2022)

Assays:
rats induced by Aβ1-42 [1] = assay: rat Y-maze experiment, Aβ1-42 AD model; type: in vivo, Sprague Dawley rats; settings: 30 mg/kg
Protocol: The rat Y-maze experiment: on the 12th day after the administration, the Y-maze experiment was performed on the groups of rats. […] In the experiment, the rats were placed into the tip of the arm A, and were permitted to freely enter and leave the three arms. The total time quantity of entering the arms and the order of entering the arms within 8 min of each of the rats were recorded. By using the continuous entering into the three different arms as one correct alternate reaction, the time quantity of the correct alternate reactions was recorded. The spontaneous alternate reaction rate is used to reflect the capacity of space working memory.

rats induced by Aβ1-42 [2] = assay: rat new-object-distinguishing experiment, Aβ1-42 AD model; set-up: species or system Sprague Dawley rats; settings: in vivo
Protocol: (§3) The mice were randomly divided into 6 groups, a sham-operation control group, a model group, three groups were fed with 25, 50 and 100 mg/kg of carrimycin, and one group was fed with 30 mg/kg of the positive drug resveratrol.
(§4) Experimental process: Aβ1-42 was dissolved by using a hexafluoroisopropanol/sterile normal-saline solution to obtain the concentration of 2 μg/μL, incubated and aged at 4° C. for 24 h to form a AO oligomer, and reserved. […] 2.5 μL, (0.5 μL/min) was injected within 5 min into each side of the hippocampus, and the needle was retained for 5 min, to result in a rat dementia model.
On the next day after the model was established, the sham-operation control group and the model group were administered intragastrically by using the corresponding solvents, the other experimental groups were administered intragastrically by using 25, 50 and 100 mg/kg of carrimycin and 30 mg/kg of the positive drug resveratrol. […]
The rat new-object-distinguishing experiment: on the 14-15th day after the administration, the new-object-distinguishing experiment was performed on the groups of rats. […] The test was performed on the third day, in which each time one rat was placed into the open field to firstly freely explore for 3min, and was then taken out, 2 same objects (A1, A2) were placed into the center of the open field, the rat was placed into the open field, and the durations (tA1, tA2) during which the rat exploreed the two objects within 5 min were recorded. After 1 h, the object A2 was replaced with a new object B, the rat was placed into the open field again, and the durations (tA1, tB) during which the rat explored the two objects were recorded. After 24 h, the object B was replaced with an object C, the rat was placed into the open field again, and the durations (tA1, tC) during which the rat explored the two objects were recorded. […] The preferential index and the discrimination index to the new objects are calculated. […]

rats induced by Aβ1-42 [3] = assay: rat Morris water-maze experiment, Aβ1-42 AD model; type: in vivo, Sprague Dawley rats; settings: 30 mg/kg
Protocol: as §3, §4
On the next day after the model was established, the sham-operation control group and the model group were administered intragastrically by using the corresponding solvents, the other experimental groups were administered intragastrically by using 25, 50 and 100 mg/kg of carrimycin and 30 mg/kg of the positive drug resveratrol. On the 12th day after Aβ1-42 was injected into the hippocampus, the experiments of Y maze, new-object distinguishing and water maze were carried out in sequence. Continue to administer during the behavioral experiment 1 time per day till the behavioristics end.
The rat water-maze experiment: on the 16-20th day after the administration, the Morris water-maze experiment was performed on the groups of rats. The Morris water-maze experiment aims at investigating the influence by Carrimycin on the space studying memory disorder. The water-maze apparatus is composed of a black stainless-steel circular water pool with the diameter of 1.5 meters and the height of 50 centimeters and a circular metal platform with the diameter of 10 centimeters, and the platform can freely move. Before the experiment, the water pool was filled with water (water temperature 24±1° C.) to cause the water level to be above the platform by 1 centimeter. In the training phase, training is performed 1 time in the morning and afternoon per day for 6 days. […]

INS-1 cell = assay: protection of INS-1 islet cell against alloxan damage (MTT); type: cell-based, Rat; settings: 0.5 mM; 24 mmol/L alloxan damage, 24 h
Protocol: the INS-1 cell was the adherent cell, the INS-1 cell in the logarithmic growth phase was used, digested by using trypsin, beated by using a complete medium, and prepared into a single-cell suspension. The cell concentration was adjusted to be 1*10^5/ml, and the cell was inoculated into the 96-well culture plate with 100 μl per well, cultured in the incubator at 5% CO2 and 37° C. for 24 h. The cells were grouped according to the demands of the experiment, the cell of the administration groups were administered with 24 mmol/L of alloxan damage, simultaneously were administered with the drug to be tested Carrimycin with different concentrations (0.2, 0.4 and 0.8 mM), 4 complex wells for each of the concentrations were provided, and all groups were continued to be cultured at 37° C. for 24 h. Additionally a normal control group (no medication administered), a model group (merely administered with alloxan damage) and a positive control group (based on the alloxan treatment, 0.5 mmol/L of metformin was added) were provided. […] And the optical density of all groups were measured by using a microplate reader at 492 nm.
The survival rate of the INS-1 cell treated by the drug is calculated by using the following formula: Survival rate of INS cell (%)=A492 (administration group)/A492 (normal control group)×100%

[4] = body weight of alloxan diabetes mice; type: in vivo, Kunming mice; settings: 200 mg/kg, gavage
Protocol: (§1) The study on the effect of Carrimycin on reducing blood sugar comprises Kunming mice was selected, single intraperitoneal injection with 160 mg/kg of alloxan was subjected to Kunming mice to form model mice. The mice whose values of blood sugar are stable at the modeling level (10˜25mmol/L) were selected, divided randomly into a model control group, a positive control group (200 mg/kg of metformin) and an administration group (with Carrimycin as the drug, 25, 50 and 100 mg/kg). Simultaneously a normal control group was provided, and was given gastric normal saline.
(§2) After the model was made and gavage was given for 30 and 45 days, the mice were fasted for 16 hours, and the mice were weighed. After weighing, blood was collected at the tail tip, and the fasting blood sugar was measured by using a blood-sugar meter. After the value of fasting blood sugar was measured, the […] were administered by intragastric administration once. After 2 h, mice in each group were given a glucose solution by gavage at 2 g/kg, and blood was collected at the tip of the tail. The blood sugar values at 0, 0.5 and 2 h were measured after the administration of glucose (Bg0, Bg0.5 and Bg2), and the area (AUC) (reaction sugar tolerance) under the blood sugar curve was calculated by using the following formula: AUC=0.25*(Bg0+4*Bg0.5+3*Bg2); and […]

diabetes mouse [5] = assay: fasting blood sugar of alloxan diabetes mice; type: in vivo, Kunming mice; settings: 200 mg/kg
Protocol: as §1, §2

diabetes mouse [6] = assay: sugar tolerance of diabetes mouse (glucose 2 g/kg by gavage); type: in vivo, Kunming mice; settings: 200 mg/kg; for Blood sugar value 0 h: 0 h after glucose; for Blood sugar value 0.5 h: 0.5 h after glucose; for Blood sugar value 2 h: 2 h after glucose
Protocol: as §1, §2

diabetes mouse [7] = assay: fasting insulin (ELISA) and insulin resistance of alloxan diabetes mice; type: in vivo, Kunming mice; settings: 200 mg/kg; 45 days; fasting blood sugar*fasting insulin/22.5
Protocol: as §1
After the model was made and gavage was given for 45 days, the mice were fasted for 16 h, and blood was collected from the fundus venous plexus. Before taking blood, the capillary was moistened with heparin, 0.5 ml of blood was collected from the fundus venous plexus, centrifuged at 3500 r/min for 10 min, and plasma was separated for testing. The supernatant was sucked, and the insulin was measured by using the ELISA method. […]
The measurement of the insulin resistance: after the concentrations of fasting blood sugar and insulin have been measured, the insulin resistance was calculated by using the formula: insulin resistance=fasting blood sugar*fasting insulin/22.5 (it is recently reported that when it is>2.6, it is determined that insulin resistance exists).

## Oc1ccc(C=Cc2cc(O)cc(O)c2)cc1 [Resveratrol, resveratrol]
Rats induced by Aβ1-42 [1]; between groups, FIG. 2
  total time quantities of entering the arms: did not have a significant difference
Rats induced by Aβ1-42 [1]; compared with the model group, FIG. 1
  Y-maze spontaneous alternate reaction rate: significantly increased
Rats induced by Aβ1-42 [2]
  Discrimination index on A1 and A2 (%): 52.87 ± 5.43%
  discrimination indexes on the new objects: significantly increased
  preferential indexes on the new objects: significantly increased
Rats induced by Aβ1-42 [3]; 2nd day, trend maintained on 3rd and 4th days, compared with the model group, FIG. 7
  escape latent periods: significantly decreased
Rats induced by Aβ1-42 [3]; between groups, FIG. 9
  swimming speeds: did not have a significant difference
Rats induced by Aβ1-42 [3]; compared with the model group, FIG. 8
  time quantities of passing through of the platform: significantly increased

## CN(C)C(=N)N=C(N)N [metformin]
INS-1 cell
  Survival rate (%): 92.91 ± 6.69 %
[4]
  Body weight gain on 30th day: 5.94 ± 1.03 g
  Body weight gain on 45th day: 7.26 ± 1.48 g
Diabetes mouse [5]; 0 day
  blood sugar, 0 day: 18.07 ± 1.26^*** mmol/L
Diabetes mouse [5]; 30th day, fasted 16 h
  blood sugar, 30th day: 14.94 ± 1.03^**# mmol/L
Diabetes mouse [5]; 45th day, fasted 16 h
  blood sugar, 45th day: 10.24 ± 1.07^*## mmol/L
Diabetes mouse [6]; 30th day
  AUC under the blood sugar curve: 33.6 ± 2.7^**#
  Blood sugar value 0 h: 14.6 ± 1.4^**
  Blood sugar value 0.5 h: 19.8 ± 1.8^**##
  Blood sugar value 2 h: 13.5 ± 1.9^**#
Diabetes mouse [6]; 45th day
  AUC under the blood sugar curve: 32.3 ± 2.1^**#
  Blood sugar value 0 h: 14.1 ± 1.5^**
  Blood sugar value 0.5 h: 18.9 ± 1.7^**#
  Blood sugar value 2 h: 13.2 ± 1.7^**#
Diabetes mouse [7]
  Insulin resistance (IR): 1.06^**###
